In patent publication US20250313544A1, “INHIBITORS OF GLUTATHIONE S-TRANSFERASE ZETA 1 (GSTZ1) AND METHODS OF USE” (H. LEE MOFFITT CANCER CENTER AND RESEARCH INSTITUTE, INC., priority 2022, published 2025):

Assays:
[1] = tested on: H1792 cells harboring KRAS G12C; test: Cell viability assay (CellTiter-Glo) in H1792 cells; format: cell-based, human; conditions: probe combined with sotorasib in H1792 cells, dose of 50 μM (FIG. 9D)
Experimental: (§1) Cells were seeded in Corning 384-well black walled/clear bottom microplates with a density of 1,000 cells/well and treated with indicated drugs and concentrations following cell attachment for 24 h. After 72 h or 96 h, as indicated, cell viability was evaluated with CellTiter-Glo (Promega, Madison, WI) according to manufacturer's recommendations. An M5 Spectramax plate reader (Molecular devices) was used to read the plates with 500 ms integration. Data was processed and analyzed using Excel and GraphPad Prism 9.0.

[2] = tested on: HCC366 cells harboring mutated DDR2; test: Cell viability assay (CellTiter-Glo) in HCC366 cells; format: cell-based, human; conditions: probe combined with dasatinib in HCC366 cells, dose of 10 μM (FIG. 9F)
Experimental: as §1

GSTZ1 = biological target: T1, GSTZ1 (Homo sapiens, UniProt O43708); test: GSTZ1 enzymatic activity assay (CNBF-GSH adduct absorbance at 420 nm); format: biochemical; design: dose or concentration left out as unconfirmed; conditions: without UV irradiation, 10 mins, room temperature
T1 sequence (O43708 1-216): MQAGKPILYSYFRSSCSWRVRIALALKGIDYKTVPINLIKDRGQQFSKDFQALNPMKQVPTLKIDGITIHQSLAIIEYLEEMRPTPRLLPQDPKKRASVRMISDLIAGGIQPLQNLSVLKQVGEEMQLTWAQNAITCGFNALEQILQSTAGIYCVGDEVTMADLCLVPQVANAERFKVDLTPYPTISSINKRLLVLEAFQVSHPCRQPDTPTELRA
Experimental: The GSTZ1 activity assay with its substrate 4-Chloro-7-nitrobenzofurazan (CNBF) was read at 420 nm, which indicates the absorbance of CNBF-GSH adducts as previously reported^61. For experiments without UV irradiation, the reaction was started by adding DMSO or probe 17, 10 μg of recombinant GSTZ1 proteins, 0.2 mM of CNBF, and 2 mM of GSH at room temperature in a final volume of 100 μl HEPES buffer at pH 5.5. For UV irradiation experiments, GSTZ1 protein was incubated with DMSO or probe 17 for 10 minutes under UV light. Each reaction was performed as at least two biological replicates. Spectrophotometry measurements were recorded using an M5 Spectramax plate reader (Molecular devices). Data was processed and analyzed using Excel and GraphPad Prism 9.0. Optical density (OD) readouts of GSTZ1-catalyzed reactions were corrected by subtracting measurements of non-enzymatic reactions. Relative GSTZ1 activity was calculated by normalizing corrected OD readouts of GSTZ1-catalyzed reactions with probe 17 to that of GSTZ1-catalyzed reactions without probe 17. For assays with UV irradiation, recombinant GSTZ1 was produced in-house. To this end, 6His-GFP tag full length human GSTZ1 (Uniprot ID: 043708) with TEV protease cleavage site in pET28-a-(+) vector (GeneScript) was transformed into BL21 DE3 cells (Cat #EC0114, ThermoFisher). […]

[3] = tested on: H520 cells harboring amplified FGFR1; test: Cell viability assay (CellTiter-Glo) in H520 cells; format: cell-based, human; conditions: probe combined with infigratinib in H520 cells, dose of 5 μM (FIG. 9E)
Experimental: as §1

GSTZ1 activity reduced by (GSTZ1): 68%
Structure (SMILES): C#CCCC1(CCC(=O)N2CCC(COc3nc4ccccc4nc3C)CC2)N=N1 [Probe 17, 3-(3-(but-3-yn-1-yl)-3H-diazirin-3-yl)-1-(4-(((3-methylquinoxalin-2-yl)oxy)methyl)piperidin-1-yl)propan-1-one]
sensitization of cells towards sotorasib [1]: significantly enhanced the sensitivity
sensitization of cells towards dasatinib [2]: significantly enhanced the sensitivity
sensitization of cells towards infigratinib [3]: significantly enhanced the sensitivity
